Laboratory results as given in patent US20090299063A1, “Inhibitors for Extracellular Signal-Regulated Kinase Docking Domains and Uses Therefor” (priority 2005, published 2009).
Entries after “also recorded” stand apart in the source; their conditions may differ.

Assays:
HeLa cells = assay: Colony formation assay, HeLa cells; type: cell-based, human; settings: FIG. 8A, 10 cm plates, 100 mM (printed) compound
Protocol: (§1) HeLa, A549, or SUM-159 cells were plated at a low density of 200-400 cells per well in the absence or presence of putative ERK docking domain inhibitors. Cell colonies were stained with crystal violet and counted after 6-10 days. In FIG. 8A cells were grown on 10 cm plates in the absence (−) or presence of […] of compound 67, 36, 68, 81, or 76. Colony formation dose response in the presence of the indicated concentrations of compound 76 (closed squares) or 81 (open squares) for Hela cells ([…]) (FIG. 8B), A549 cells (50 mM) (FIG. 8C), or SUM-159 cells (50 mM) (FIG. 8D).
(§2) Two methods were used to determine cell proliferation and survival based on colony formation. First, HeLa cells were grown to 70-80% confluence and then treated for 16 hours in the absence (DMSO only) or presence of active compounds. The next day cells were trypsinized, replated (1000-2000 cells per 10 cm culture dish) in regular media and allowed to grow for 8-14 days. Cells then were fixed for 10 minutes in 4% paraformaldehyde and stained with 0.2% crystal violet (in 20% methanol) for 1-2 minutes. Cells were washed several times with distilled water and colonies formed of at least 40 cells were counted. In the second method, growing cells were trypsinized and replated (500-1000 cells per 35 or 60 mm well, respectively) in the presence or absence of various concentrations of the test compounds. Following incubation for 8-14 days, cells were fixed, stained with crystal violet, and counted as described above.
The effects of the active compounds on cell proliferation and survival were tested using a colony formation assay.
(§3) Thus, several test compounds that show maximal inhibition of ERK substrates are also effective inhibitors of proliferation in cultured cancer cell lines.

[1] = test system: ERK-mediated phosphorylation of Rsk-1 on Thr573; assay: ERK-mediated Rsk-1 phosphorylation, immunoblot of EGF-stimulated HeLa cells; type: cell-based, human
[2] = test system: ERK-specific phosphorylation of Elk-1 on Ser383; assay: ERK-mediated Elk-1 phosphorylation, immunoblot of EGF-stimulated HeLa cells; type: cell-based, human
Protocol: (§4) In FIGS. […] The far left lane is the control (−) with no EGF. […] The control (C) is EGF only treatment. In FIG. 4B cells pretreated with increasing concentrations of compound 76 were stimulated with EGF. ELK-1 phosphorylation on Ser383 (pELK-1) was measured by immunoblotting. […] Protein lysates were separated by SDS-PAGE and immunoblotted simultaneously for phosphorylated ELK-1 (pELK-1, Ser383), dually phosphorylated ERK1/2 (ppERK1/2), and a-tubulin as a protein loading control. […] The control (C) is EGF only treatment.
(§5) The lysates then were diluted with an equal volume of 2× SDS-sample buffer and the proteins were separated on SDS-PAGE for immunoblot analysis. Immunoblot analysis was done as previously described (41-43).
Compounds that were identified using the 3D structure of phosphorylated ERK2 also were tested.

[3] = test system: dually phosphorylated ERK1/2 (ppERK1/2); assay: ERK1/2 phosphorylation on activating sites (ppERK1/2), immunoblot of EGF-stimulated HeLa cells; type: cell-based, human
Protocol: as §4, with “FIGS. 4A-4B HeLa cells were treated with EGF for 5 minutes with or without […] of test compounds.” for “FIGS.”
as §5

[4] = test system: SUM-159 estrogen-receptor negative breast cancer cell line; assay: Colony formation assay, SUM-159 cells; type: cell-based, human; settings: SUM-159, FIG. 8D
Protocol: as §1
as §2, with “In the second method, growing cells were trypsinized and replated (500-1000 cells per 35 or 60 mm well, respectively) in the presence or absence of various concentrations of the test compounds.” left out, “above. […]” for “above.”

ERK2 = biological target: T1, ERK2 (Mus musculus, UniProt P63085); assay: ERK2 fluorescence titration (quenching of intrinsic fluorescence); type: binding; settings: for quenching of ERK2 fluorescence (in words): wild type ERK2, excitation 295 nm
T1 construct: (His)6; made in house; host or cells: bacteria
Excerpt: ERK2 was purified as described previously (46) with some modifications. Briefly, (His)6-tagged ERK2 was expressed in bacteria and the cells were harvested in BugBuster protein extraction reagent (EMD Biosciences, San Diego, Calif.). Clarified lysates were loaded onto a Talon Co^2+-IMAC affinity chromatography resin column (BD Biosciences, San Jose, Calif.) and the bound protein was eluted using increasing concentrations of imidazole. SDS-PAGE electrophoresis and Coomassie blue staining were used to identify the eluted fractions containing the ERK2 protein. The ERK2 protein concentration was determined using Bradford Reagent (Sigma).
Experiments will measure the changes in the intrinsic ERK2 fluorescence due to the presence of aromatic amino acids, with the indole group of tryptophan being the major fluorophore with absorption and emission maxima around 280 and 340 nanometers (nm), respectively. Fluorescence spectra were recorded with a Luminescence Spectrometer LS50 (Perkin Elmer, Boston, Mass.). For all experiments, ERK2 protein was diluted into 20 mM Tris-HCl, pH 7.5. Titrations were performed by increasing the test compound concentration while maintaining the ERK2 protein concentration at […]. […] The excitation wavelength was 295 nm and fluorescence was monitored from 300 to 500 nm. All reported fluorescence intensities are relative values and are not corrected for wavelength variations in detector response. Dissociation constants, KD, were determined using reciprocal plots, 1/v vs 1/[I], where v represents the percent occupied sites calculated assuming fluorescence quenching to be directly proportion to the percentage of occupied binding sites, [1] represents the concentration of the inhibitor compound and the slope of the curve equals the KD (48-49).
ERK2 contains three tryptophans, which have intrinsic fluorescence.

[5] = test system: HT1080 fibrosarcoma cells; assay: Cell proliferation, HT1080 cells; type: cell-based, human; settings: HT1080, data not shown
Protocol: as §2, §3

colony formation = assay: Colony formation assay of compounds 86-98 (cell line not given); type: cell-based; settings: Table 3
Protocol: Cell colonies were stained with crystal violet and counted after 6-10 days.
Cells then were fixed for 10 minutes in 4% paraformaldehyde and stained with 0.2% crystal violet (in 20% methanol) for 1-2 minutes.

[6] = increasing doses of compound, EGF stimulation
[7] = 75 mM (printed) test compound 30 minutes, EGF 5 minutes

T1 sequence (P63085 whole entry): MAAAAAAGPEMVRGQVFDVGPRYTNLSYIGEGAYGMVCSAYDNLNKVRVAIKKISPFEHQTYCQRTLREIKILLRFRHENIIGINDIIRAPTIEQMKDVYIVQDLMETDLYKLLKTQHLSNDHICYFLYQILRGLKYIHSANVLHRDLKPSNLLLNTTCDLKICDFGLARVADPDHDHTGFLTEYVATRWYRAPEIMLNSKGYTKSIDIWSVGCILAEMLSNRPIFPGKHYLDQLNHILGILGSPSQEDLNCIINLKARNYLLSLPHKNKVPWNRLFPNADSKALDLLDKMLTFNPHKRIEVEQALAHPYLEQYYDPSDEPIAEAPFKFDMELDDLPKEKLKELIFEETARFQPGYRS

y-intercept of reciprocal plot (indicating a single binding site) (ERK2; wild type ERK2)	IC50 (colony formation)	Structure (SMILES)	effect on colony formation / cell proliferation (in words) (HeLa cells)	effect on ERK-mediated Rsk-1 phosphorylation (in words) [1]	effect on ERK-mediated Elk-1 phosphorylation (Ser383) [2, 6]	effect on ERK1/2 phosphorylation on its activating sites [3, 6]	inhibition of cell proliferation (in words) [4]	quenching of ERK2 fluorescence (in words) (ERK2)	inhibition of cell proliferation (in words) [5]	effect on EGF-mediated ELK-1 phosphorylation (Ser383) [2, 7]	effect on ERK1/2 phosphorylation (ppERK1/2) [3, 7]
–	–	N=C(N)Nc1nc(C2COc3ccccc3O2)cs1 (stereo not drawn) [Compound 36]	subtle inhibition of colony formation; also recorded: little effect on colony formation	little effect on ERK substrate phosphorylation; also recorded: little effect on ERK-mediated Rsk-1 phosphorylation	–	–	–	–	–	–	–
1.8	–	CCOc1ccc(C=C2SC(=O)N(CCN)C2=O)cc1 [Compound 76]	completely inhibited cell proliferation	highest inhibition of Rsk-1 phosphorylation	inhibited ERK-mediated Elk-1 phosphorylation	largely unaffected	inhibition of cell proliferation	strong quenching of fluorescence	inhibition of cell proliferation	–	–
–	–	O=C(CCN1CCN(C/C=C/c2ccccc2)CC1)Nc1ccc(Cl)cc1 [Compound 81]	completely inhibited cell proliferation	–	–	–	inhibition of cell proliferation	quenching only occurs to a small extent at the higher concentrations	inhibition of cell proliferation	–	–
–	> 100 µM	COc1cc(C=C2NC(=O)NC2=O)ccc1OCc1ccc(Br)cc1 [Compound 95]	–	–	–	–	–	quenched ERK2 fluorescence; also recorded: more effective in quenching	–	showed evidence for inhibiting ERK-mediated ELK-1 phosphorylation; also recorded: inhibited EGF-mediated ELK-1 phosphorylation	little effect on ERK1/2 phosphorylation
